Reference: paper PMC8213057, “Targeting ALK2: An Open Science Approach to Developing Therapeutics for the Treatment of Diffuse Intrinsic Pontine Glioma” (Journal of Medicinal Chemistry, 2020)

Legend:
BLK = BLK (Homo sapiens, UniProt P51451); details: 1 μM; Run 1, Run 2
in vitro = details: human, Caco-2, pH 7.4
MELK = MELK (Homo sapiens, UniProt Q14680); experiment: biochemical; details: read-out: % enzyme activity, 1 μM; Run 1, Run 2
[1] = 10 mg/kg PO, relative to 8b
in vivo = details: female, CB17 SCID, mouse, po, 10 mg/kg
Haspin = target: T1, Haspin (Homo sapiens, UniProt Q8TF76); experiment: biochemical; details: read-out: % enzyme activity, 1 μM; Run 1, Run 2
T1 sequence (Q8TF76 1-798): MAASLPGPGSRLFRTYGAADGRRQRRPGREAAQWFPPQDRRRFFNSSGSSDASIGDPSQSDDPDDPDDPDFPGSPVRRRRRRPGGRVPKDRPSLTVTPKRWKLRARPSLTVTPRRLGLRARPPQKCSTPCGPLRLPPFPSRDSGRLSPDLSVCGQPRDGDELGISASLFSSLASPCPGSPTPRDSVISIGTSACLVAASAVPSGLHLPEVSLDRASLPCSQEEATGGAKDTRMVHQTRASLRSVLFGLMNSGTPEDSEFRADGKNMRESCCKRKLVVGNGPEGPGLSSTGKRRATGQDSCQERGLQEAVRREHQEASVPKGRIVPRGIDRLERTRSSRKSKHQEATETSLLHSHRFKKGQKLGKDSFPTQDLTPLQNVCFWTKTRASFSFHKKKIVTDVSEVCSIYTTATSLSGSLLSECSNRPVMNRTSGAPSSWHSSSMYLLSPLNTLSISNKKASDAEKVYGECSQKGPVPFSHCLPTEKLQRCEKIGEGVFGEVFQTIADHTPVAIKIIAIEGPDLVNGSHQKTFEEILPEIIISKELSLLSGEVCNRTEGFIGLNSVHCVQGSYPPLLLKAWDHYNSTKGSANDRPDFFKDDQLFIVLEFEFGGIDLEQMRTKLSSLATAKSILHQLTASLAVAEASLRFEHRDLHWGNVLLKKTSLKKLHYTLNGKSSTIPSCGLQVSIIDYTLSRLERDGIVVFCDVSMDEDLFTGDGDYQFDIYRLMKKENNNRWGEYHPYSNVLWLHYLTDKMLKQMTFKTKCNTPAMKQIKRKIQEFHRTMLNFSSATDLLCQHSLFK

DAPK1 = DAPK1 (Homo sapiens, UniProt P53355); experiment: biochemical; details: read-out: % enzyme activity, 1 μM; Run 1, Run 2
DAPK1, sequence (P53355 whole entry): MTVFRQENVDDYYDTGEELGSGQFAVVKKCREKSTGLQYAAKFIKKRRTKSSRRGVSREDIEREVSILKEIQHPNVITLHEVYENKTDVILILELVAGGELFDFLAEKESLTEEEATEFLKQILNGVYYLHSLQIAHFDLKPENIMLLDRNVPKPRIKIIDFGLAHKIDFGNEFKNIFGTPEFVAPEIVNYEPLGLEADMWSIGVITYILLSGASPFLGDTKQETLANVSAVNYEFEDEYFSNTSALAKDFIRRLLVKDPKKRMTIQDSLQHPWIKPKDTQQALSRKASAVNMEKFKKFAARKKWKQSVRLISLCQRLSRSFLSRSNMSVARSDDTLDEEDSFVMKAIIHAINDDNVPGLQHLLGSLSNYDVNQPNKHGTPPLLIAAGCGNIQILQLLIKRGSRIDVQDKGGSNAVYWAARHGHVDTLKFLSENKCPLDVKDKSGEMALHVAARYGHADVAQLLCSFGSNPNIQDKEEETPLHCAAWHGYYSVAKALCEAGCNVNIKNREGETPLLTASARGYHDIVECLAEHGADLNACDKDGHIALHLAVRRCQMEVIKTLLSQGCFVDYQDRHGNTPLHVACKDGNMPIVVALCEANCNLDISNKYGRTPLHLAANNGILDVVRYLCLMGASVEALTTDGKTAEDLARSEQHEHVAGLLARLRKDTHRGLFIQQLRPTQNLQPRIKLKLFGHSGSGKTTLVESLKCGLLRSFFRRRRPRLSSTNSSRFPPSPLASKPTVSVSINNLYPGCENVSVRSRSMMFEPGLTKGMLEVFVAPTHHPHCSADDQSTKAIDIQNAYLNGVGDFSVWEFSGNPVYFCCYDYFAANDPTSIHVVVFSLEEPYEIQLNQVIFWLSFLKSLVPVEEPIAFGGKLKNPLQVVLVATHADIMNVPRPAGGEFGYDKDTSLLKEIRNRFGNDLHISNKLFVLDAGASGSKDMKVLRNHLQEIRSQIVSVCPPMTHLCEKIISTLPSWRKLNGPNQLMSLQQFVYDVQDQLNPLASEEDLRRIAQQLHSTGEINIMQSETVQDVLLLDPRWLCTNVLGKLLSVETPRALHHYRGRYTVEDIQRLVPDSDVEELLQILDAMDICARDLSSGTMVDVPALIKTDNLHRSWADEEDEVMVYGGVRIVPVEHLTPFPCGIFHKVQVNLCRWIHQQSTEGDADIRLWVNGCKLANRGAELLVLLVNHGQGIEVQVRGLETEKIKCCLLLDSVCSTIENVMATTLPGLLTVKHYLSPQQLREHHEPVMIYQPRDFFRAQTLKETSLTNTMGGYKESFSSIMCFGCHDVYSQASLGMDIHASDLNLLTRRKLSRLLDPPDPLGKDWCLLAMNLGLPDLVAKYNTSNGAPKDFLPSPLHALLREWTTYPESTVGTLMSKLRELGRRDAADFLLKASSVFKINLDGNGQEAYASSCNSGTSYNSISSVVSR

ALK2/ACVR1 = target: T2, ALK2/ACVR1 (Homo sapiens, UniProt Q04771); assay type: biochemical; details: biochemical ALK5 IC50 / ALK2 IC50
T2 construct: purchased Reaction Biology Corporation
T2 sequence (Q04771 21-509): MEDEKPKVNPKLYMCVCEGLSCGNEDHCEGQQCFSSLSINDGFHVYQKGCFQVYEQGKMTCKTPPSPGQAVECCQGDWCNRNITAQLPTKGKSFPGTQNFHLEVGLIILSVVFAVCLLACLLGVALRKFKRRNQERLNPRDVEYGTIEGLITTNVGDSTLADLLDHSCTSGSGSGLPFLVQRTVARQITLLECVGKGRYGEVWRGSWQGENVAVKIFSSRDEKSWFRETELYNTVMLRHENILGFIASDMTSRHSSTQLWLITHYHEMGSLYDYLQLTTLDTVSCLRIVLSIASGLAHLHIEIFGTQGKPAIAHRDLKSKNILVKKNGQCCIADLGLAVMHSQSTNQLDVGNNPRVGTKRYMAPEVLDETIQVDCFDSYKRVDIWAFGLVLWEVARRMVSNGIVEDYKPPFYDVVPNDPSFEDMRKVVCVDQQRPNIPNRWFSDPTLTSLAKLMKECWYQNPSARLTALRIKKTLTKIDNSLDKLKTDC

PKG1b = target: T3, PKG1b (Homo sapiens, UniProt Q13976); details: 1 μM; Run 1, Run 2
T3 sequence (Q13976 1-686 isoform Q13976-2): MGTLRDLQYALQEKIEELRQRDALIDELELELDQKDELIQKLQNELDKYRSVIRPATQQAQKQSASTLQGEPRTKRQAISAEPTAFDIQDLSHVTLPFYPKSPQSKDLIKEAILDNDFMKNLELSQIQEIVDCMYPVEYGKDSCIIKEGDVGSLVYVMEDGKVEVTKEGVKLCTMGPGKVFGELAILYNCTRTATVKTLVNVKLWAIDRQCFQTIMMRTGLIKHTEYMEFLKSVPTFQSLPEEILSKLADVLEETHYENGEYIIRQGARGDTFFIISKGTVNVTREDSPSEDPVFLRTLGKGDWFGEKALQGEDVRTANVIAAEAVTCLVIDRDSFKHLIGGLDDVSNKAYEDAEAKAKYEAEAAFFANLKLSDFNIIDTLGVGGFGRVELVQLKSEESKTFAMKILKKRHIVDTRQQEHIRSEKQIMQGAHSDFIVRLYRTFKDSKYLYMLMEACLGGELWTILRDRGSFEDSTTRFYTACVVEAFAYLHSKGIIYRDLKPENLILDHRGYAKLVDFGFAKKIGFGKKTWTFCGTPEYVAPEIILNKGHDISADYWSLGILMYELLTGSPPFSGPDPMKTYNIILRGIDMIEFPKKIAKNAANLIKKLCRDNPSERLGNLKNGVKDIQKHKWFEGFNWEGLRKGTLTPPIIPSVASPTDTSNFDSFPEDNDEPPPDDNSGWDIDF

DDR1 = target: T4, DDR1 (Homo sapiens, UniProt Q08345); experiment: 375-member kinase panel; assay type: biochemical; details: Run 1, Run 2
T4 construct: purchased Reaction Biology Corporation
T4 sequence (Q08345 19-913): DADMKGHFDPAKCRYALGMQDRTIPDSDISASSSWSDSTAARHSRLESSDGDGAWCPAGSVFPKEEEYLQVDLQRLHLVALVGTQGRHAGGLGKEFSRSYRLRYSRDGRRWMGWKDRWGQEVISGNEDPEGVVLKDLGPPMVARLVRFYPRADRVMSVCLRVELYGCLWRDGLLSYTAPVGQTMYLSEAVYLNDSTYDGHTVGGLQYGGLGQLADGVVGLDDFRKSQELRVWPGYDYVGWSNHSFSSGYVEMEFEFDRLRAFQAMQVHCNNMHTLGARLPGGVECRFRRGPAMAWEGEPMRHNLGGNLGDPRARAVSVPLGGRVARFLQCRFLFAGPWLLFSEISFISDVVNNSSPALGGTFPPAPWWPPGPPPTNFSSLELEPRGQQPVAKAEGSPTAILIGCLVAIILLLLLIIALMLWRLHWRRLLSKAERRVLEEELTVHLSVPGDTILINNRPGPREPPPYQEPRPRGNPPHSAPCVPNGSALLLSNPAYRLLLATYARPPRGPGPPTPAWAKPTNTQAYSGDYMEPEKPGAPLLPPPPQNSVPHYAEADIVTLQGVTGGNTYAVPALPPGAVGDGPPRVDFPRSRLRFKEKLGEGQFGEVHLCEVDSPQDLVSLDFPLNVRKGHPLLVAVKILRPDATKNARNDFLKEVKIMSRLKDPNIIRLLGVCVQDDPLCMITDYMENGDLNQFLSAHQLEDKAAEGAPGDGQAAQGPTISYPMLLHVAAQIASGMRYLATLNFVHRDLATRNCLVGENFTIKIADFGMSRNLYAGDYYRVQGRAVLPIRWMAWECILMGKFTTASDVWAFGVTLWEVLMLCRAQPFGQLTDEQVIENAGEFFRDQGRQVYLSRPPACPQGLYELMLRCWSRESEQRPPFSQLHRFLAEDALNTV

CYP2B6 = CYP2B6 (Homo sapiens, UniProt P20813); details: read-out: CYP2B6 IC50; human liver microsomes
CYP2B6, sequence (P20813 whole entry): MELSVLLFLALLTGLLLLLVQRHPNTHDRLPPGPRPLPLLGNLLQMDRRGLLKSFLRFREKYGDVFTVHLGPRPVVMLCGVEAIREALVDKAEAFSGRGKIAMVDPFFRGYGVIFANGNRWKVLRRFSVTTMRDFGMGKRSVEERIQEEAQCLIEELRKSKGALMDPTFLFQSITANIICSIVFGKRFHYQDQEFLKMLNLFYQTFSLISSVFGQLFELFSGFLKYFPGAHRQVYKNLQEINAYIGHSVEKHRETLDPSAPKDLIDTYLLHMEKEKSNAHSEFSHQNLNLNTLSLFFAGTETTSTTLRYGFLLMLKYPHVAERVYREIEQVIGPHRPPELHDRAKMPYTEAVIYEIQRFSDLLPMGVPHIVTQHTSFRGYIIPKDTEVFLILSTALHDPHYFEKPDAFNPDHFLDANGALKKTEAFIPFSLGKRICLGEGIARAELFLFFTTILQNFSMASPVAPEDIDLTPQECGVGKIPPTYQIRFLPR

MNK2 = MNK2 (Homo sapiens, UniProt Q9HBH9); details: 1 μM; Run 1, Run 2
MNK2, sequence (Q9HBH9 whole entry): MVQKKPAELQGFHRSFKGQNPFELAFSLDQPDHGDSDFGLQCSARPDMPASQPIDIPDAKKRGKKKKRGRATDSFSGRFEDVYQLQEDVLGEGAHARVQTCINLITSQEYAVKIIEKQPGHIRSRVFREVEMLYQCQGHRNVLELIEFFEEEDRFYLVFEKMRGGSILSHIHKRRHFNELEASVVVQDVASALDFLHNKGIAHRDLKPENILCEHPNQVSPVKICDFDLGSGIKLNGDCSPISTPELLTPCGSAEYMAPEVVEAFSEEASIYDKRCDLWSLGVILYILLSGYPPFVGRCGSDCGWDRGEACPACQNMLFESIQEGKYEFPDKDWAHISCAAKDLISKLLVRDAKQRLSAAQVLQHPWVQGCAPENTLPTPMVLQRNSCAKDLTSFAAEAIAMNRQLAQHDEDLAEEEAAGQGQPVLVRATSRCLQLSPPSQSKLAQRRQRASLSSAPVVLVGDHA

MELK, sequence (Q14680 whole entry): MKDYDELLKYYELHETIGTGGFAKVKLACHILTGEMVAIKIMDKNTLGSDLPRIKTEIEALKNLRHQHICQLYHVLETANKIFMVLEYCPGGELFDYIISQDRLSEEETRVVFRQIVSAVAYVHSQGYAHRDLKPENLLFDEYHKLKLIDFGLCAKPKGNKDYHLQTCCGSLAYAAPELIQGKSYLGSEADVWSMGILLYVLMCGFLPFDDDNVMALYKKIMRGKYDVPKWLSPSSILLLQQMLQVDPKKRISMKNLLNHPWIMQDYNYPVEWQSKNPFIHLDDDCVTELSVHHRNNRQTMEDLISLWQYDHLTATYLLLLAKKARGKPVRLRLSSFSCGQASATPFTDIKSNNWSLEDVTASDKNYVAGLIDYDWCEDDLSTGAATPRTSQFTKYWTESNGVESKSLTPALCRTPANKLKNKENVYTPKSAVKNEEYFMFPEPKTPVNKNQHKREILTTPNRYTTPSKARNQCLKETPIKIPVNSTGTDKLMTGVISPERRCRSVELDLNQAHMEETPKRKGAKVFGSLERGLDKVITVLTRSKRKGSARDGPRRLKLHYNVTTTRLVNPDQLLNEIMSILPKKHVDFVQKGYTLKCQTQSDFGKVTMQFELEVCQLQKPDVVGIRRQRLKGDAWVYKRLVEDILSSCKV
BLK, sequence (P51451 whole entry): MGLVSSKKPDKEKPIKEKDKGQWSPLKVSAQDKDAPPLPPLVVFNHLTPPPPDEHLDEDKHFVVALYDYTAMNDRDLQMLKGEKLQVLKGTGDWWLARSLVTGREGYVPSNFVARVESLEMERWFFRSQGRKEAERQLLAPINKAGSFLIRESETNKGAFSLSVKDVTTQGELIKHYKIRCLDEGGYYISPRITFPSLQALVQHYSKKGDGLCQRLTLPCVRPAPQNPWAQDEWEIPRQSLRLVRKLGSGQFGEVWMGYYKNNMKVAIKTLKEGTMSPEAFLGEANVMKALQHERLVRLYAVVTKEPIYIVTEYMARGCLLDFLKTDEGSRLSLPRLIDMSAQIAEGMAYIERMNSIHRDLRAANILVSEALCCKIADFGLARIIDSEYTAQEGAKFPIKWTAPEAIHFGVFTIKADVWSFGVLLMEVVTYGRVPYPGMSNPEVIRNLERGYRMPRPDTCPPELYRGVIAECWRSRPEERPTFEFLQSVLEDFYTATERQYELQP

| SMILES | % enzyme activity (BLK) | efflux ratio (in vitro) | remaining activity at 1 µM (MELK) | fold increase in AUCinf [1] | fold increase in Cmax [1] | half-life at 24 h (in vivo) | remaining activity at 1 µM (Haspin) | remaining activity at 1 µM (DAPK1) | Fold Selectivity (ALK5/ALK2) (ALK2/ACVR1) | % enzyme activity (PKG1b) | % enzyme activity (DDR1; 1 μM) | remaining activity at 1 µM (DDR1; read-out: % enzyme activity, 1 μM) | IC50 (DLA ALK5) | IC50 (CYP2B6) | % enzyme activity (MNK2) | IC50 (NanoBRET ALK2) |
| --- | --- | --- | --- | --- | --- | --- | --- | --- | --- | --- | --- | --- | --- | --- | --- | --- |
| COc1cc(-c2cncc(-c3ccc(N4CCN(C)CC4)cc3)c2C)cc(F)c1C(N)=O [Compound 26a, 2-Fluoro-6-methoxy-4-(4-methyl-5-(4-(4-methylpiperazin-1-yl)phenyl)pyridin-3-yl)benzamide] | 95.94% | < 3 | 99.2% | > 13 fold | greater than 17 fold | 2.56 h | 83.3% | 95.7% | 350 | 98.83% | 31.23% | 32.1% |  |  |  |  |
| COc1cc(-c2cncc(-c3ccc(N4C[C@@H](C)N(C)[C@@H](C)C4)cc3)c2C)cc(F)c1C(N)=O [Compound 26c, 2-Fluoro-6-methoxy-4-(4-methyl-5-(4-((3R,5S)-3,4,5-trimethylpiperazin-1-yl)phenyl)pyridin-3-yl)benzamide] |  |  | 99.4% |  |  |  | 84.8% | 98.8% |  | 96.31% |  |  | > 5000 nM | > 50000 nM | 68.28% | 100 nM |
